Assay results published in patent US11672804B1, “Pharmaceutical composition containing palbociclib and letrozole” (EGIS Gyógyszergyár Zrt., priority 2022, dated 2023).

Assays:
[1] = Compatibility tests of components, 1 month; assay type: physicochemical; details: for degradation of letrozole caused by PTSA: 1 months
Procedure: The compatibility test was performed at room temperature (25° C.), 40° C. under 75% RH and 50° C., for 1 months with the various components tested in proportion to the intended composition.

[2] = pH dependence; cited from earlier work

| degradation of letrozole caused by PTSA ([1]; 25° C.) | degradation of letrozole caused by PTSA ([1]; 40° C.) | degradation of letrozole caused by PTSA ([1]; 50° C.) | degradation of palbociclib base by PTSA ([1]; 25° C., 40° C. and 50° C., one month) | Compound | solubility [2] |
| --- | --- | --- | --- | --- | --- |
| 5% | 12% | 15% | – | N#Cc1ccc(C(c2ccc(C#N)cc2)n2cncn2)cc1 [letrozole, Letrozole] | – |
| – | – | – | did not induce degradation | CC(=O)c1c(C)c2cnc(Nc3ccc(N4CCNCC4)cn3)nc2n(C2CCCC2)c1=O [palbociclib base, Palbociclib] | soluble only in a strongly acidic medium |
